Reference: patent US20110281896A1, “OPTICALLY PURE QUINAZOLINE COMPOUNDS” (Jiangsu Hansoh Pharmaceutical Co. Ltd, priority 2009, published 2011)

Experiments:
MCF-7 = experiment: Antitumor activity in vitro, SRB cell proliferation inhibition; type: cell-based; details: 72 h incubation, Logit method
Protocol: (§1) Evaluation of Antitumor Activity In Vitro
(§2) Cell Strains: A431; MCF-7
(§3) Experiment Design: Cells were incubated with different concentrations of compounds for 72 hours. The inhibition of cell proliferation by the compounds was evaluated by SRB, followed by calculation of the inhibition rate. Then, value of IC50 was calculated by using-Logit method base on the inhibition rate and used to compare in vitro antitumor activity of the compounds.
(§4) Method for Calculating the Inhibition Rate: Inhibition rate (%)=(OD value of control group−OD value of drug group)/OD value of control group×100%

A431 = experiment: as above; type: cell-based; details: 72 h incubation, Logit method
Protocol: as §1, §2, §3, §4

[1] = Homo sapiens, MCF7, MCF-7 cells
[2] = Homo sapiens, A-431, A431 cells

IC50 (MCF-7; [1]) [nM] | IC50 (A431; [2]) [nM] | IC50 (MCF-7; MCF-7 cells) [nM] | IC50 (A431; A431 cells) [nM] | Structure (SMILES)
5460 | 489 |  |  | CCN[C@H](CS(C)(=O)=O)c1ccc(-c2ccc3ncnc(Nc4ccc5c(cnn5Cc5cccc(F)c5)c4)c3c2)o1 [Compound 146, (S)—N-(1-(3-fluorobenzyl)-1H-indazol-5-yl)-6-(5-(1-(ethylamino)-2-(methylsulfonyl)ethyl)furan-2-yl)quinazolin-4-amine]
 |  | 4130 | 452 | CCN(C)[C@H](CS(C)(=O)=O)c1cnc(-c2ccc3ncnc(Nc4ccc(OCc5cccc(F)c5)c(Cl)c4)c3c2)s1 [Compound 139]
5870 | 857 |  |  | C=CCN[C@H](CS(C)(=O)=O)c1ccc(-c2ccc3ncnc(Nc4ccc5c(cnn5Cc5cccc(F)c5)c4)c3c2)o1 [Compound 153, (S)—N-(1-(3-fluorobenzyl)-1H-indazol-5-yl)-6-(5-(1-(allyl-amino)-2-(methylsulfonyl)ethyl)furan-2-yl)quinazolin-4-amine]
6690 | 525 |  |  | CS(=O)(=O)C[C@H](N)c1cnc(-c2ccc3ncnc(Nc4ccc(OCc5cccc(F)c5)c(Cl)c4)c3c2)s1 [Compound 118, (S)—N-(4-(3-fluorobenzyl-oxy)-3-chlorophenyl)-6-(5-(1-(amino)-2-(methylsulfonyl)ethyl)thiazole-2-yl)quinazolin-4-amine]
 |  | 7560 | 658 | CCN[C@@H](CS(C)(=O)=O)c1cnc(-c2ccc3ncnc(Nc4ccc(OCc5cccc(F)c5)c(Cl)c4)c3c2)s1 [Compound 120]
 |  | 8590 | 536 | CON(C)[C@@H](CS(C)(=O)=O)c1cnc(-c2ccc3ncnc(Nc4ccc(OCc5cccc(F)c5)c(Cl)c4)c3c2)s1 [Compound 130]
6220 | 855 |  |  | CCCN(CCC)[C@@H](CS(C)(=O)=O)c1ccc(-c2ccc3ncnc(Nc4ccc(OCc5cccc(F)c5)c(Cl)c4)c3c2)o1 [Compound 112, (R)—N-(4-(3-fluorobenzyl-oxy)-3-chlorophenyl)-6-(5-(1-(N,N-dipropyl-amino)-2-(methylsulfonyl)ethyl)furan-2-yl)quinazolin-4-amine]
6700 | 578 |  |  | CN(C1CC1)[C@H](CS(C)(=O)=O)c1ccc(-c2ccc3ncnc(Nc4ccc(OCc5cccc(F)c5)c(Cl)c4)c3c2)o1 [Compound 96, (S)—N-(4-(3-fluorobenzyl-oxy)-3-chlorophenyl)-6-(5-(1-(cyclopropyl-methyl-amino)-2-(methylsulfonyl)ethyl)furan-2-yl)quinazolin-4-amine]
 |  | 6670 | 624 | CCN(CC)[C@H](CS(C)(=O)=O)c1ccc(-c2ccc3ncnc(Nc4ccc5c(cnn5Cc5cccc(F)c5)c4)c3c2)o1 [Compound 150]
6820 | 699 |  |  | CCN(CC)[C@@H](CS(C)(=O)=O)c1ccc(-c2ccc3ncnc(Nc4ccc(OCc5cccc(F)c5)c(Cl)c4)c3c2)o1 [Compound 111, (R)—N-(4-(3-fluorobenzyl-oxy)-3-chlorophenyl)-6-(5-(1-(N,N-diethyl-amino)-2-(methylsulfonyl)ethyl)furan-2-yl)quinazolin-4-amine]
7660 | 677 |  |  | CCN(CC)[C@H](CS(C)(=O)=O)c1ccc(-c2ccc3ncnc(Nc4ccc(OCc5cccc(F)c5)c(Cl)c4)c3c2)o1 [Compound 98, (S)—N-(4-(3-fluorobenzyl-oxy)-3-chlorophenyl)-6-(5-(1-(N,N-diethyl-amino)-2-(methyl-sulfonyl)ethyl)furan-2-yl)quinazolin-4-amine]
 |  | 4600 | 426 | CCCN(CCC)[C@H](CS(C)(=O)=O)c1cnc(-c2ccc3ncnc(Nc4ccc(OCc5cccc(F)c5)c(Cl)c4)c3c2)s1 [Compound 138]
 |  | 5470 | 589 | CCN(CC)[C@H](CS(C)(=O)=O)c1cnc(-c2ccc3ncnc(Nc4ccc(OCc5cccc(F)c5)c(Cl)c4)c3c2)s1 [Compound 137]
7900 | 489 |  |  | C=CCN[C@@H](CS(C)(=O)=O)c1ccc(-c2ccc3ncnc(Nc4ccc(OCc5cccc(F)c5)c(Cl)c4)c3c2)o1 [Compound 114, (R)—N-(4-(3-fluorobenzyl-oxy)-3-chlorophenyl)-6-(5-(1-(allyl-amino)-2-(methylsulfonyl)ethyl)furan-2-yl)quinazolin-4-amine]
 |  | 7760 | 523 | CCCN(CCC)[C@@H](CS(C)(=O)=O)c1cnc(-c2ccc3ncnc(Nc4ccc(OCc5cccc(F)c5)c(Cl)c4)c3c2)s1 [Compound 125]
9340 | 422 |  |  | CS(=O)(=O)C[C@@H](N)c1ccc(-c2ccc3ncnc(Nc4ccc(OCc5cccc(F)c5)c(Cl)c4)c3c2)o1 [Compound 92, (S)—N-(4-(3-fluorobenzyl-oxy)-3-chlorophenyl)-6-(5-(1-(amino)-2-(methylsulfonyl)ethyl)furan-2-yl)quinazolin-4-amine]

IC50 (MCF-7; [1]) [nM] | IC50 (A431; [2]) [nM] | IC50 (MCF-7; MCF-7 cells) [nM] | IC50 (A431; A431 cells) [nM] | Structure (SMILES)
 |  | 9000 | 632 | CON(C)[C@H](CS(C)(=O)=O)c1ccc(-c2ccc3ncnc(Nc4ccc(OCc5cccc(F)c5)c(Cl)c4)c3c2)o1 [Compound 104]
 |  | 8590 | 480 | CON[C@H](CS(C)(=O)=O)c1ccc(-c2ccc3ncnc(Nc4ccc5c(cnn5Cc5cccc(F)c5)c4)c3c2)o1 [Compound 155]
 |  | 4800 | 441 | CON[C@@H](CS(C)(=O)=O)c1ccc(-c2ccc3ncnc(Nc4ccc(OCc5cccc(F)c5)c(Cl)c4)c3c2)o1 [Compound 116]
 |  | 6120 | 588 | CN[C@@H](CS(C)(=O)=O)c1cnc(-c2ccc3ncnc(Nc4ccc(OCc5cccc(F)c5)c(Cl)c4)c3c2)s1 [Compound 119]
10400 | 588 |  |  | C=CCN[C@H](CS(C)(=O)=O)c1ccc(-c2ccc3ncnc(Nc4ccc(OCc5cccc(F)c5)c(Cl)c4)c3c2)o1 [Compound 101, (S)—N-(4-(3-fluorobenzyl-oxy)-3-chlorophenyl)-6-(5-(1-(allyl-amino)-2-(methylsulfonyl)ethyl)furan-2-yl)quinazolin-4-amine]
 |  | 5090 | 788 | CON(C)[C@H](CS(C)(=O)=O)c1cnc(-c2ccc3ncnc(Nc4ccc(OCc5cccc(F)c5)c(Cl)c4)c3c2)s1 [Compound 143]
4900 | 624 |  |  | C#CCN[C@H](CS(C)(=O)=O)c1ccc(-c2ccc3ncnc(Nc4ccc5c(cnn5Cc5cccc(F)c5)c4)c3c2)o1 [Compound 154, (S)—N-(1-(3-fluorobenzyl)-1H-indazol-5-yl)-6-(5-(1-(propargyl-amino)-2-(methylsulfonyl)ethyl)furan-2-yl)quinazolin-4-amine]
 |  | 6390 | 465 | CCCN[C@@H](CS(C)(=O)=O)c1cnc(-c2ccc3ncnc(Nc4ccc(OCc5cccc(F)c5)c(Cl)c4)c3c2)s1 [Compound 121]
 |  | 7860 | 500 | CON[C@H](CS(C)(=O)=O)c1cnc(-c2ccc3ncnc(Nc4ccc(OCc5cccc(F)c5)c(Cl)c4)c3c2)s1 [Compound 142]
8900 | 457 |  |  | C#CCN[C@H](CS(C)(=O)=O)c1ccc(-c2ccc3ncnc(Nc4ccc(OCc5cccc(F)c5)c(Cl)c4)c3c2)o1 [Compound 102, (S)—N-(4-(3-fluorobenzyl-oxy)-3-chlorophenyl)-6-(5-(1-(propargyl-amino)-2-(methylsulfonyl)ethyl)furan-2-yl)quinazolin-4-amine]
7070 | 758 |  |  | CCN(C)[C@@H](CS(C)(=O)=O)c1ccc(-c2ccc3ncnc(Nc4ccc(OCc5cccc(F)c5)c(Cl)c4)c3c2)o1 [Compound 113, (R)—N-(4-(3-fluorobenzyloxy)-3-chlorophenyl)-6-(5-(1-(N-methyl, N-ethyl-amino)-2-(methylsulfonyl)ethyl)furan-2-yl)quinazolin-4-amine]
4970 | 711 |  |  | CS(=O)(=O)C[C@@H](N)c1ccc(-c2ccc3ncnc(Nc4ccc5c(cnn5Cc5cccc(F)c5)c4)c3c2)o1 [Compound 144, (S)—N-(1-(3-fluorobenzyl)-1H-indazol-5-yl)-6-(5-(1-(amino)-2-(methylsulfonyl)ethyl)furan-2-yl)quinazolin-4-amine]
 |  | 9710 | 667 | CON[C@@H](CS(C)(=O)=O)c1cnc(-c2ccc3ncnc(Nc4ccc(OCc5cccc(F)c5)c(Cl)c4)c3c2)s1 [Compound 129]
7000 | 442 |  |  | CN(C1CC1)[C@H](CS(C)(=O)=O)c1ccc(-c2ccc3ncnc(Nc4ccc5c(cnn5Cc5cccc(F)c5)c4)c3c2)o1 [Compound 148, (S)—N-(1-(3-fluorobenzyl)-1H-indazol-5-yl)-6-(5-(1-(cyclopropyl-methyl-amino)-2-(methylsulfonyl)ethyl)furan-2-yl)quinazolin-4-amine]
6770 | 578 |  |  | CCN[C@@H](CS(C)(=O)=O)c1ccc(-c2ccc3ncnc(Nc4ccc(OCc5cccc(F)c5)c(Cl)c4)c3c2)o1 [Compound 107, (R)—N-(4-(3-fluorobenzyl-oxy)-3-chlorophenyl)-6-(5-(1-(ethylamino)-2-(methylsulfonyl)ethyl)furan-2-yl)quinazolin-4-amine]

Structure (SMILES) | IC50 (MCF-7; [1]) [nM] | IC50 (A431; [2]) [nM] | IC50 (MCF-7; MCF-7 cells) [nM] | IC50 (A431; A431 cells) [nM]
C=CCN[C@H](CS(C)(=O)=O)c1cnc(-c2ccc3ncnc(Nc4ccc(OCc5cccc(F)c5)c(Cl)c4)c3c2)s1 [Compound 140] |  |  | 4020 | 648
C#CCN[C@H](CS(C)(=O)=O)c1cnc(-c2ccc3ncnc(Nc4ccc(OCc5cccc(F)c5)c(Cl)c4)c3c2)s1 [Compound 141] |  |  | 7620 | 486
C=CCN[C@@H](CS(C)(=O)=O)c1cnc(-c2ccc3ncnc(Nc4ccc(OCc5cccc(F)c5)c(Cl)c4)c3c2)s1 [Compound 127] |  |  | 5890 | 521
C#CCN[C@@H](CS(C)(=O)=O)c1cnc(-c2ccc3ncnc(Nc4ccc(OCc5cccc(F)c5)c(Cl)c4)c3c2)s1 [Compound 128] |  |  | 6340 | 672
